Columns and labels:
Assay type in all cases: functional
[1] = Olfactory detection threshold value and quantitative measure of odour impression; No threshold value.
[2] = Evaluated for its olfactory detection threshold value and indicates quantitative measure of odour impression
[3] = Evaluated for its olfactory detection threshold value and indicates quantitative measure of odor impression
[4] = Evaluated for its olfactory detection threshold value and indicates quantitative measure of odour impression; No threshold value.

Structure (SMILES) | Log 1/C [2] | also measured
COc1cnccn1 |  | Log 1/C [1]: No threshold value
Cc1nccnc1C |  | Log 1/C [1]: No threshold value
CC(C)Cc1cnccn1 | 2.53 | 
CCCCCCCCc1nccnc1SCC |  | Log 1/C [3]: 5.1
CCCC(C)Cc1cnc(SC)c(C)n1 (stereo not drawn) | 4.27 | 
COc1nccnc1CC(C)C | 7.47 | 
CCc1ncc(C)nc1C |  | Log 1/C [4]: No threshold value
CCSc1cnccn1 |  | Log 1/C [1]: No threshold value
CSc1cnccn1 |  | Log 1/C [1]: No threshold value
Cc1ncc(C(C)C)nc1C | 3.88 | 
COc1nc(C(C)C)c(OC)nc1C(C)C | 2.52 | 
COc1nc(C(C)=O)c(OC)nc1C |  | Log 1/C [4]: No threshold value
CCc1nccnc1OC |  | Log 1/C [1]: No threshold value
CC(C)Cc1cncc(N(C)C)n1 | 1.55 | 
CCCCc1cnccn1 | 2.53 | 
C/C=C/CCc1nccnc1OC | 6.1 | 
CCCCCCCCc1nccnc1Sc1ccccc1 |  | Log 1/C [1]: No threshold value
CCC(C)CCc1cnc(OC)c(C)n1 (stereo not drawn) | 5.24 | 
CCCCCc1nccnc1SC | 6.21 | 
COc1nc(C)cnc1C |  | Log 1/C [4]: No threshold value
CCOc1ncc(C(C)CC)nc1C (stereo not drawn) | 4.21 | 
CCCCCc1cnc(C)c(C)n1 | 3.3 | 
C=CCCCc1nccnc1OC | 6.77 | 
C/C=C\CCc1nccnc1OC | 5.52 | 
COc1nc(C(C)C)c(OC)nc1C | 3.45 | 

Structure (SMILES) | Log 1/C [2] | also measured
CCCCCc1cnccn1 | 4.48 | 
COc1ncc(C)nc1C(C)(C)O |  | Log 1/C [4]: No threshold value
CCSc1nccnc1C |  | Log 1/C [4]: No threshold value
CCCCc1nccnc1OC | 6.52 | 
CCc1nc(C)cnc1C |  | Log 1/C [4]: No threshold value
Cc1cnc(C)c(C)n1 |  | Log 1/C [1]: No threshold value
CCCc1nccnc1C | 3.36 | 
CCOc1nccnc1C |  | Log 1/C [4]: No threshold value
CCC(C)Cc1cnc(OC)c(C)n1 (stereo not drawn) | 7.29 | 
COc1nccnc1C(C)C | 6.8 | 
CCc1cnccn1 |  | Log 1/C [1]: No threshold value
CSc1nccnc1C(C)C | 6.55 | 
COc1nccnc1CCC(C)C | 7.46 | 
CCc1nccnc1CC | 5.13 | 
CCCCCCC(C)Cc1nccnc1OC (stereo not drawn) |  | Log 1/C [1]: No threshold value
Cc1nccnc1CC(C)C | 3.06 | 
CCOc1ncc(CC(C)CC)nc1C (stereo not drawn) | 4.54 | 
COc1nc(C)c(OC)nc1C | 2.97 | 
COc1ncc(C)nc1C(C)C | 6.52 | 
Cc1nc(CC(C)C)cnc1Oc1ccccc1 | 2.88 | 
COc1nc(C)cnc1C(C)=O |  | Log 1/C [4]: No threshold value
CCC(C)CCc1cnc(Oc2ccccc2)c(C)n1 (stereo not drawn) | 3.29 | 
COc1nc(C)cnc1CC(C)C | 5.84 | 
CCCCCc1nccnc1SCC | 5.32 | 
CNc1nccnc1C |  | Log 1/C [1]: No threshold value

Structure (SMILES) | Log 1/C [2] | also measured
Cc1nc(C)c(C)nc1C |  | Log 1/C [4]: No threshold value
CCCCCc1nccnc1OC | 6.95 | 
CCc1cnc(C)c(C)n1 |  | Log 1/C [4]: No threshold value
CCCc1nccnc1OC | 6.1 | 
COc1cncc(C)n1 |  | Log 1/C [1]: No threshold value
Cc1nccnc1C(C)C | 3.93 | 
CSc1cncc(C)n1 |  | Log 1/C [1]: No threshold value
CCSc1ncc(CC(C)CC)nc1C (stereo not drawn) | 4.95 | 
CCCCCCCCCCc1nccnc1OCC |  | Log 1/C [3]: 3.64
COc1ncc(C)nc1CC(C)C | 4.84 | 
CCOc1ncc(CCC(C)CC)nc1C (stereo not drawn) | 4.87 | 
CCCCCCCc1nccnc1OC | 6.9 | 
CCC(C)c1nccnc1OC (stereo not drawn) | 6.62 | 
CCSc1cnc(CCC(C)CC)cn1 (stereo not drawn) | 3.63 | 
Cc1ncc(CC(C)C)nc1C |  | Log 1/C [4]: No threshold value
COc1nccnc1CCCCCCC(C)C |  | Log 1/C [1]: No threshold value
CCCCCCCCc1nccnc1OC |  | Log 1/C [3]: 6.57
Cc1cnc(C)c(CCC(C)C)n1 |  | Log 1/C [4]: No threshold value
CSc1nccnc1CC(C)C | 5.74 | 
Cc1nccnc1N(C)C | 2.88 | 
COc1nc(C)c(C)nc1CC(C)C | 2.79 | 
CCOc1nccnc1CC(C)C |  | Log 1/C [1]: No threshold value
CCC(C)Cc1nccnc1OC (stereo not drawn) | 7.18 | 
COc1nccnc1CCCC(C)C | 7.51 | 
CCCCCCc1nccnc1OC | 6.44 | 

Structure (SMILES) | Log 1/C [2] | also measured
CCOc1ncc(CC(C)C)nc1C | 4.08 | 
CCCCCCCCCCc1nccnc1OC |  | Log 1/C [3]: 3.8
COc1nccnc1C |  | Log 1/C [1]: No threshold value
CCCCCCCCc1nccnc1SC |  | Log 1/C [3]: 5.53
COc1ncc(CC(C)C)nc1C | 6 | 
CCCC(C)Cc1nccnc1OC (stereo not drawn) | 7.38 | 
CCCCc1nccnc1SCC | 4.69 | 
CCCCOc1cnccn1 |  | Log 1/C [1]: No threshold value
CC(C)c1cnc(Oc2ccccc2)cn1 | 2.79 | 
CCCC(C)c1nccnc1OC (stereo not drawn) |  | Log 1/C [1]: No threshold value
COc1nc(C)cnc1C(C)(C)O |  | Log 1/C [4]: No threshold value
CCCc1nccnc1SC | 5.23 | 
CCOc1cnccn1 |  | Log 1/C [1]: No threshold value
COc1nc(C)cnc1C(C)C | 6.57 | 
CCSc1nccnc1CC |  | Log 1/C [4]: No threshold value
CSc1nccnc1C |  | Log 1/C [1]: No threshold value
CSc1ncc(CC(C)C)nc1C | 4.12 | 
CCCCCc1nccnc1OCC | 6.38 | 
COc1nc(OC)c(C(C)C)nc1C | 2.89 | 
CCCCCCCCc1nccnc1OCC |  | Log 1/C [3]: 5.07
CCc1cnc(C)cn1 |  | Log 1/C [3]: 2.45
COc1nc(CC(C)C)cnc1CC(C)C |  | Log 1/C [1]: No threshold value
Cc1cnc(C)cn1 |  | Log 1/C [1]: No threshold value

Source: ChEMBL document CHEMBL1134567, “Prediction of the aroma quality and the threshold values of some pyrazines using artificial neural networks” (J Med Chem, 2001)
